# Experimental data: patent US20230085307A1, “PYRIDAZINONE COMPOUND AND HERBICIDE” (NISSAN CHEMICAL CORPORATION, priority 2019, published 2023)
# Columns and labels:
# rice flat sedge = experiment: Test Example 3: herbicidal effect by foliage application, Wagner pot (Table 18, symbol E); format: in vivo, rice flat sedge (Cyperus iria); conditions: 320 g/ha
# Method in brief: (§1)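 Plants were sown in alluvial soil held under 0.1–0.5 cm standing water and grown 14 days in a greenhouse at 25–30 °C. An emulsifiable formulation, water-diluted to the set dose, was then sprayed onto the foliage, and effects were scored three weeks later using previously defined criteria.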
# southern crabgrass [1] = experiment: Test Example 4: herbicidal effect by soil treatment (Table 19, symbol F); format: in vivo, southern crabgrass (Digitaria ciliaris)
# Method in brief: (§2)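 Step 1: sow seeds in sterilized diluvial soil, cover ~1.5 cm. Step 2: spray diluted emulsion onto soil surface at predetermined rate. Step 3: greenhouse, 25–30° C, three weeks. Step 4: grade effect on each plant by earlier criteria.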
# barnyard grass [2] = experiment: Test Example 4: herbicidal effect by soil treatment (Table 19, symbol H); format: in vivo, barnyard grass (Echinochloa crus-galli)
# Method in brief: as §2
# chickweed [3] = experiment: Test Example 5: herbicidal effect by foliage application, plastic box (Table 20, symbol P); format: in vivo, common chickweed (Stellaria media); conditions: evaluated three weeks after application
# Method in brief: (§3)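 Foliar spray test: emulsion formulation diluted in water to a set application rate, sprayed onto 14-day-old plants raised in diluvial soil at 25° C to 30° C under glass. Both herbicidal effect and crop effect rated visually three weeks later.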
# blackgrass [4] = experiment: Test Example 4: herbicidal effect by soil treatment (Table 19, symbol J); format: in vivo, blackgrass (Alopecurus myosuroides)
# Method in brief: as §2
# windgrass [5] = experiment: Test Example 5: herbicidal effect by foliage application, plastic box (Table 20, symbol L); format: in vivo, windgrass (Apera spica-venti); conditions: evaluated three weeks after application
# Method in brief: as §3
# green foxtail [6] = experiment: Test Example 5: herbicidal effect by foliage application, plastic box (Table 20, symbol G); format: in vivo, green foxtail (Setaria viridis); conditions: evaluated three weeks after application
# Method in brief: as §3
# lambsquarters [7] = experiment: Test Example 5: herbicidal effect by foliage application, plastic box (Table 20, symbol O); format: in vivo, lambsquarters (Chenopodium album); conditions: evaluated three weeks after application
# Method in brief: as §3
# barnyard grass [8] = experiment: Test Example 3: herbicidal effect by foliage application, Wagner pot (Table 18, symbol H); format: in vivo, barnyard grass (Echinochloa crus-galli); conditions: 320 g/ha
# Method in brief: as §1
# velvetleaf [9] = experiment: Test Example 4: herbicidal effect by soil treatment (Table 19, symbol M); format: in vivo, velvetleaf (Abutilon theophrasti)
# Method in brief: as §2
# chickweed [10] = experiment: Test Example 4: herbicidal effect by soil treatment (Table 19, symbol P); format: in vivo, common chickweed (Stellaria media)
# Method in brief: as §2
# lambsquarters [11] = experiment: Test Example 4: herbicidal effect by soil treatment (Table 19, symbol O); format: in vivo, lambsquarters (Chenopodium album)
# Method in brief: as §2
# oval-leafed pondweed = experiment: Test Example 1: herbicidal activity, application before weed generation under submerged conditions (Table 16, symbol C); format: in vivo, oval-leafed pondweed (Monochoria vaginalis)
# Method in brief: (§4)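 Submerged Wagner pots (alluvial soil, 4 cm water) sown with weed seeds and planted with 2.5-leaf rice seedlings; emulsifiable concentrate diluted in water applied to water surface on sowing day. Held in greenhouse at 25-30 °C; injury scored 0-5 by herbicidal rate after three weeks.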
# Italian ryegrass [12] = experiment: Test Example 4: herbicidal effect by soil treatment (Table 19, symbol K); format: in vivo, Italian ryegrass (Lolium multiflorum)
# Method in brief: as §2
# redroot pigweed [13] = experiment: Test Example 5: herbicidal effect by foliage application, plastic box (Table 20, symbol N); format: in vivo, redroot pigweed (Amaranthus retroflexus); conditions: evaluated three weeks after application
# Method in brief: as §3
# Japanese bulrush = experiment: Test Example 1: herbicidal activity, application before weed generation under submerged conditions (Table 16, symbol B); format: in vivo, Japanese bulrush (Schoenoplectus juncoides)
# Method in brief: as §4
# wild oat [14] = experiment: Test Example 4: herbicidal effect by soil treatment (Table 19, symbol I); format: in vivo, wild oat (Avena fatua)
# Method in brief: as §2
# wild oat [15] = experiment: Test Example 5: herbicidal effect by foliage application, plastic box (Table 20, symbol I); format: in vivo, wild oat (Avena fatua); conditions: evaluated three weeks after application
# Method in brief: as §3
# windgrass [16] = experiment: Test Example 4: herbicidal effect by soil treatment (Table 19, symbol L); format: in vivo, windgrass (Apera spica-venti)
# Method in brief: as §2
# persian speedwell = experiment: Test Example 5: herbicidal effect by foliage application, plastic box (Table 20, symbol R); format: in vivo, Persian speedwell (Veronica persica); conditions: evaluated three weeks after application
# Method in brief: as §3
# velvetleaf [17] = experiment: Test Example 5: herbicidal effect by foliage application, plastic box (Table 20, symbol M); format: in vivo, velvetleaf (Abutilon theophrasti); conditions: evaluated three weeks after application
# Method in brief: as §3
# Italian ryegrass [18] = experiment: Test Example 5: herbicidal effect by foliage application, plastic box (Table 20, symbol K); format: in vivo, Italian ryegrass (Lolium multiflorum); conditions: evaluated three weeks after application
# Method in brief: as §3
# barnyard grass [19] = experiment: Test Example 5: herbicidal effect by foliage application, plastic box (Table 20, symbol H); format: in vivo, barnyard grass (Echinochloa crus-galli); conditions: evaluated three weeks after application
# Method in brief: as §3
# southern crabgrass [20] = experiment: Test Example 5: herbicidal effect by foliage application, plastic box (Table 20, symbol F); format: in vivo, southern crabgrass (Digitaria ciliaris); conditions: evaluated three weeks after application
# Method in brief: as §3
# redroot pigweed [21] = experiment: Test Example 4: herbicidal effect by soil treatment (Table 19, symbol N); format: in vivo, redroot pigweed (Amaranthus retroflexus)
# Method in brief: as §2
# blackgrass [22] = experiment: Test Example 5: herbicidal effect by foliage application, plastic box (Table 20, symbol J); format: in vivo, blackgrass (Alopecurus myosuroides); conditions: evaluated three weeks after application
# Method in brief: as §3
# green foxtail [23] = experiment: Test Example 4: herbicidal effect by soil treatment (Table 19, symbol G); format: in vivo, green foxtail (Setaria viridis)
# Method in brief: as §2
# late watergrass = experiment: Test Example 1: herbicidal activity, application before weed generation under submerged conditions (Table 16, symbol A); format: in vivo, late watergrass (Echinochloa oryzicola)
# Method in brief: as §4
# Chinese sprangletop = experiment: Test Example 3: herbicidal effect by foliage application, Wagner pot (Table 18, symbol D); format: in vivo, chinese sprangletop (Leptochloa chinensis); conditions: 320 g/ha
# Method in brief: as §1
# [24] = amount of applied herbicide 320 g/ha
# [25] = amount of applied herbicide 320 g/ha, foliage application after 14-day growth
structure (smiles),measurement,setting,value
Cc1nn(C)c(=O)c(-c2c(-c3ccc(OS(=O)(=O)C(F)(F)F)cc3)sc3ccc(F)cc23)c1O [2-075],"herbicidal effect on E (rice flat sedge), rating 0-5",rice flat sedge,4 (Herbicidal rate of 70% or more and less than 90%)
same,"herbicidal effect rating, F: southern crabgrass",southern crabgrass [1]; 320 g/ha,0 (Herbicidal rate of 5% or less (almost no effect))
same,"herbicidal effect rating, H: barnyard grass",barnyard grass [2]; 320 g/ha,0 (Herbicidal rate of 5% or less (almost no effect))
same,herbicidal effect on P: chickweed,"chickweed [3]; foliage application, 320 g/ha",3 (Herbicidal rate of 40% or more and less than 70%)
same,"herbicidal effect rating, J: blackgrass",blackgrass [4]; 320 g/ha,0 (Herbicidal rate of 5% or less (almost no effect))
same,herbicidal effect on L: windgrass,"windgrass [5]; foliage application, 320 g/ha",0 (Herbicidal rate of 5% or less (almost no effect))
same,herbicidal effect on G: green foxtail,"green foxtail [6]; foliage application, 320 g/ha",0 (Herbicidal rate of 5% or less (almost no effect))
same,herbicidal effect on O: lambsquarters,"lambsquarters [7]; foliage application, 320 g/ha",3 (Herbicidal rate of 40% or more and less than 70%)
same,"herbicidal effect on H (barnyard grass), rating 0-5",barnyard grass [8],2 (Herbicidal rate of 20% or more and less than 40%)
same,"herbicidal effect rating, M: velvetleaf",velvetleaf [9]; 320 g/ha,0 (Herbicidal rate of 5% or less (almost no effect))
same,"herbicidal effect rating, P: chickweed",chickweed [10]; 320 g/ha,0 (Herbicidal rate of 5% or less (almost no effect))
same,"herbicidal effect rating, O: lambsquarters",lambsquarters [11]; 320 g/ha,3 (Herbicidal rate of 40% or more and less than 70%)
same,Herbicidal effect on C: oval-leafed pondweed (grade 0-5),oval-leafed pondweed; 320 g/ha applied herbicide,0 (Herbicidal rate of 5% or less (almost no effect))
same,"herbicidal effect rating, K: Italian ryegrass",Italian ryegrass [12]; 320 g/ha,0 (Herbicidal rate of 5% or less (almost no effect))
same,herbicidal effect on N: redroot pigweed,"redroot pigweed [13]; foliage application, 320 g/ha",2 (Herbicidal rate of 20% or more and less than 40%)
same,Herbicidal effect on B: Japanese bulrush (grade 0-5),Japanese bulrush; 320 g/ha applied herbicide,2 (Herbicidal rate of 20% or more and less than 40%)
same,"herbicidal effect rating, I: wild oat",wild oat [14]; 320 g/ha,0 (Herbicidal rate of 5% or less (almost no effect))
same,herbicidal effect on I: wild oat,"wild oat [15]; foliage application, 320 g/ha",0 (Herbicidal rate of 5% or less (almost no effect))
same,"herbicidal effect rating, L: windgrass",windgrass [16]; 320 g/ha,0 (Herbicidal rate of 5% or less (almost no effect))
same,herbicidal effect on R: persian speedwell,"persian speedwell; foliage application, 320 g/ha",5 (Herbicidal rate of 90% or more (almost completely withered))
same,herbicidal effect on M: velvetleaf,"velvetleaf [17]; foliage application, 320 g/ha",3 (Herbicidal rate of 40% or more and less than 70%)
same,herbicidal effect on K: Italian ryegrass,"Italian ryegrass [18]; foliage application, 320 g/ha",0 (Herbicidal rate of 5% or less (almost no effect))
same,herbicidal effect on H: barnyard grass,"barnyard grass [19]; foliage application, 320 g/ha",0 (Herbicidal rate of 5% or less (almost no effect))
same,herbicidal effect on F: southern crabgrass,"southern crabgrass [20]; foliage application, 320 g/ha",0 (Herbicidal rate of 5% or less (almost no effect))
same,"herbicidal effect rating, N: redroot pigweed",redroot pigweed [21]; 320 g/ha,1 (Herbicidal rate of 5% or more and less than 20%)
same,herbicidal effect on J: blackgrass,"blackgrass [22]; foliage application, 320 g/ha",0 (Herbicidal rate of 5% or less (almost no effect))
same,"herbicidal effect rating, G: green foxtail",green foxtail [23]; 320 g/ha,0 (Herbicidal rate of 5% or less (almost no effect))
same,Herbicidal effect on A: late watergrass (grade 0-5),late watergrass; 320 g/ha applied herbicide,2 (Herbicidal rate of 20% or more and less than 40%)
same,"herbicidal effect on D (Chinese sprangletop), rating 0-5",Chinese sprangletop,2 (Herbicidal rate of 20% or more and less than 40%)
Cc1nn(C)c(=O)c(-c2c(-c3ccc(F)cc3)sc3c(C)cccc23)c1O [4-100],herbicidal effect on rice flat sedge (E),rice flat sedge,0 (Herbicidal rate of 5% or less (almost no effect))
same,"Herbicidal effect by soil treatment, F: southern crabgrass",southern crabgrass [1]; [24],0 (Herbicidal rate of 5% or less (almost no effect))
same,"Herbicidal effect by soil treatment, H: barnyard grass",barnyard grass [2]; [24],0 (Herbicidal rate of 5% or less (almost no effect))
same,"Herbicidal effect by foliage application, P: chickweed",chickweed [3]; [25],5 (Herbicidal rate of 90% or more (almost completely withered))
same,"Herbicidal effect by soil treatment, J: blackgrass",blackgrass [4]; [24],0 (Herbicidal rate of 5% or less (almost no effect))
same,"Herbicidal effect by foliage application, L: windgrass",windgrass [5]; [25],1 (Herbicidal rate of 5% or more and less than 20%)
same,"Herbicidal effect by foliage application, G: green foxtail",green foxtail [6]; [25],0 (Herbicidal rate of 5% or less (almost no effect))
same,"Herbicidal effect by foliage application, O: lambsquarters",lambsquarters [7]; [25],5 (Herbicidal rate of 90% or more (almost completely withered))
same,herbicidal effect on barnyard grass (H),barnyard grass [8],2 (Herbicidal rate of 20% or more and less than 40%)
same,"Herbicidal effect by soil treatment, M: velvetleaf",velvetleaf [9]; [24],3 (Herbicidal rate of 40% or more and less than 70%)
same,"Herbicidal effect by soil treatment, P: chickweed",chickweed [10]; [24],3 (Herbicidal rate of 40% or more and less than 70%)
same,"Herbicidal effect by soil treatment, O: lambsquarters",lambsquarters [11]; [24],4 (Herbicidal rate of 70% or more and less than 90%)
same,"Herbicidal effect, C: oval-leafed pondweed",oval-leafed pondweed; [24],1 (Herbicidal rate of 5% or more and less than 20%)
same,"Herbicidal effect by soil treatment, K: Italian ryegrass",Italian ryegrass [12]; [24],0 (Herbicidal rate of 5% or less (almost no effect))
same,"Herbicidal effect by foliage application, N: redroot pigweed",redroot pigweed [13]; [25],4 (Herbicidal rate of 70% or more and less than 90%)
same,"Herbicidal effect, B: Japanese bulrush",Japanese bulrush; [24],3 (Herbicidal rate of 40% or more and less than 70%)
same,"Herbicidal effect by soil treatment, I: wild oat",wild oat [14]; [24],0 (Herbicidal rate of 5% or less (almost no effect))
same,"Herbicidal effect by foliage application, I: wild oat",wild oat [15]; [25],0 (Herbicidal rate of 5% or less (almost no effect))
same,"Herbicidal effect by soil treatment, L: windgrass",windgrass [16]; [24],0 (Herbicidal rate of 5% or less (almost no effect))
same,"Herbicidal effect by foliage application, R: persian speedwell",persian speedwell; [25],5 (Herbicidal rate of 90% or more (almost completely withered))
same,"Herbicidal effect by foliage application, M: velvetleaf",velvetleaf [17]; [25],5 (Herbicidal rate of 90% or more (almost completely withered))
same,"Herbicidal effect by foliage application, K: Italian ryegrass",Italian ryegrass [18]; [25],3 (Herbicidal rate of 40% or more and less than 70%)
same,"Herbicidal effect by foliage application, H: barnyard grass",barnyard grass [19]; [25],0 (Herbicidal rate of 5% or less (almost no effect))
same,"Herbicidal effect by foliage application, F: southern crabgrass",southern crabgrass [20]; [25],0 (Herbicidal rate of 5% or less (almost no effect))
same,"Herbicidal effect by soil treatment, N: redroot pigweed",redroot pigweed [21]; [24],3 (Herbicidal rate of 40% or more and less than 70%)
same,"Herbicidal effect by foliage application, J: blackgrass",blackgrass [22]; [25],3 (Herbicidal rate of 40% or more and less than 70%)
same,"Herbicidal effect by soil treatment, G: green foxtail",green foxtail [23]; [24],1 (Herbicidal rate of 5% or more and less than 20%)
same,"Herbicidal effect, A: late watergrass",late watergrass; [24],3 (Herbicidal rate of 40% or more and less than 70%)
same,herbicidal effect on Chinese sprangletop (D),Chinese sprangletop,0 (Herbicidal rate of 5% or less (almost no effect))
